# From patent US7947312B2, “Method of preparation and composition of a water soluble extract of the bioactive component of the plant species Uncaria for enhancing immune, anti-inflammatory, anti-tumor and DNA repair processes of warm blooded animals” (priority 2002, dated 2011)
# Counter-ions that a name gives are not always drawn.
# Legend:
# DXR-induced leucopenia = assay: Doxorubicin (DXR)-induced leucopenia rat model, recovery of peripheral WBC; assay type: in vivo; conditions: 200 mg/kg gavage, compared to C-MED-100
# From the text: In vivo evaluation of the efficacy of quinic acid as an active ingredient isolated from water soluble Cat's Claw extracts. A rat model was used to evaluate if active ingredients isolated from water soluble extracts of Cat's Claw could be shown to be effective in vivo by inducing recovery of peripheral white blood cells (WBC) after doxorubicin (DXR)-induced leucopenia. […] The rat study experimental design used to compare quinic acid and C-MED-100® is outlined in detail (diagrammatic form) below.
# 50 female W/Fu rats, weighing 150-180 g each, were divided into 5 groups of 10 rats per group. Doxorubicin, obtained from Pharmacia and Upjohn, was administered in a 2 mg/kg dose for all rats groups 2-5, IP injection (day 1, 3, 5). Group 3 also received C-MED-100® (Batch No E-40622), administered in a dose of 80 mg/kg, gavage daily from day 6 (24 hours after the third/last treatment of DXR) to the end of experiment (day 21/22). […]
# The body weight (GM) of each rat was measured before and at the end of the experiment. […] Whole peripheral blood samples were collected into K3-EDTA containing tubes by periorbital puncture and then analyzed for WBC within 1 hour with an automated hematology analyzer (Sysmex, K-1000) Organ weights from major tissues (liver, kidney, lung, heart, spleen) were also collected and used as an indicator of any toxicity.
# [1] = system: mouse spleen cells activated with Con A or LPS; assay: Proliferation of mitogen-stimulated mouse spleen cells (3[H]-thymidine incorporation); assay type: cell-based; conditions: Con A 2.5 μg/ml or LPS 10 μg/ml, 48 hours
# Method: FIG. 4A illustrates spleen cells (2×10^5) that were activated with Con A (left; 2.5 μg/ml) or LPS (right; 10 μg/ml) in the presence of indicated concentrations of C-MED-100®, QAA or QA. Proliferation was assayed after 48 hours by ^3[H]-thymidine incorporation in triplicate cultures. Results from one representative experiment out of three are presented as mean values±S.D.
# (§1) Cell cultures: Raji human Burkitt's lymphoma (CCL-86), Jurkat human acute T-cell leukemia (TIB-152), 70Z/3 mouse pre-B lymphocyte cell line (TIB-158), or mouse spleen cells were used in the experiments. The cells were cultured in RPMI medium (Life Technologies) supplemented with 10% FCS, 10 mM HEPES buffer, antibiotics, 50 μM 2-mercaptoethanol and 1 mM sodium pyruvate (all supplements from Life Technologies) at 37° C., 5% CO2. The number of Raji cells in duplicate cultures were determined with a Coulter Z1 cell counter (Beckman Coulter Inc, Fullerton, Calif., USA) three times each. The number of viable and dead cells were determined using trypan blue exclusion, by counting three independent samples from duplicate cultures. […] Proliferation was detected by measuring thymidine incorporation after a 4 hours pulse with 1 μCi ^3[H]-thymidine (Amersham Pharmacia).
# Jurkat T cells = assay: Jurkat T cell proliferation (data not shown); assay type: cell-based, human
# [2] = system: NF-κB dependent Igκ-chain expression in 70Z/3 cells; assay: LPS-induced Igκ-chain expression in 70Z/3 cells (flow cytometry, 7AAD); assay type: cell-based
# Method: FIG. 5B illustrates 70Z/3 cells (2×10^5) that were pretreated for 4 h with C-MED-100® or QA before activation for 20 h with LPS (25 μg/ml). The cells were thereafter stained with 7AAD and Igκ-antibodies and analyzed by flow cytometry. The results are mean Igκ-positive cells±S.D. (left panel) and mean 7AAD negative cells±S.D. (right panel) of duplicate cultures from one representative experiment out of two performed.
# as §1
# IκBα = assay: Western blotting of IκBα and phosphorylated IκBα in LPS-stimulated 70Z/3 cells; assay type: cell-based, mouse; conditions: QA 2 mg/ml or PDTC 100 μM
# Method: FIGS. 5C and 5D illustrate 70Z/3 cells (5×10^6) that were pre-treated with QA (2 mg/ml) or with PDTC (100 μM) as a positive control for two hours and thereafter stimulated with LPS (25 μg/ml) for the indicated time. Cytoplasmic extracts equalized for protein concentration were analyzed by western blotting using IκBα-specific antibodies. One representative experiment out of three (FIG. 5C) and one representative experiment out of two (FIG. 5D) are presented.
# Preparation of cell extracts: The 70Z/3 cells were pretreated with QA (1 or 2 mg/ml) or with PDTC for 2 hours before they were stimulated with LPS for various time points. Whole cell extracts from the 70Z/3 cells (1×10^6) were prepared for analysis of the NF-κB signaling pathway. The cells were washed twice in PBS, resuspended in lysis buffer (75 mM Tris-HCl (pH 8.0), 100 mM NaCl, 5 mM KCl, 3 mM MgCl2, 2% NP-40, 1 mM PMSF and a protease inhibitor cocktail) (Roche Diagnostics Scandinavia AB) and incubated on ice for 10 min. The cell debris was pelleted and the supernatants were stored at −70° C. until Western Blot was performed.
# Western blotting: Cellular extracts from 70Z/3 cells were separated on a 10% SDS polyacrylamide gel and the proteins were transferred to a nylon membrane. After blocking overnight in 5% dry fat-free milk in TBST, the membrane was incubated for 2 hrs with primary antibodies specific either to IκBα or to phosphorylated IκBα (both from Cell Signaling Technology Inc, Beverly, Mass.). The membranes were thereafter washed three times in TBST, and incubated with HRP-conjugated goat anti-rabbit antibodies (Amersham Pharmacia). The membranes were washed three times and chemoluminescence was detected using the ECL-reagent (Amersham Pharmacia) and x-ray film (CEA AB, Strängnäs, Sweden).
SMILES,recovery from DXR-induced leucopenia (DXR-induced leucopenia),proliferation of mitogen-stimulated mouse lymphocytes [1],proliferation of Jurkat T cells (Jurkat T cells),cell death in 70Z/3 cells (7AAD) [2],"LPS-induced Igκ-chain expression ([2]; 70Z/3 cells, 4 h pretreatment, LPS 25 μg/ml 20 h)",phosphorylation of IκBα (IκBα),LPS-induced breakdown of IκBα (IκBα; 2 h pretreatment)
"O=C(O)[C@]1(O)C[C@@H](O)[C@@H](O)[C@H](O)C1 [QAA, quinic acid ammonium salt]",could induce recovery from DXR-induced leucopenia about as effectively as 80 mg/kg C-MED-100® could,inhibited cell proliferation in a dose dependent manner,–,–,–,–,–
"O=C(O)C1(O)CC(O)C(O)C(O)C1 (centres unmarked) [QA, 1,3,4,5-tetrahydroxy-cyclohexanecarboxylic acid]",could induce recovery from DXR-induced leucopenia about as effectively as 80 mg/kg C-MED-100® could,–,did not inhibit proliferation,without causing cell death,inhibited Igκ-chain expression to a similar extent,did not affect the phosphorylation of IκBα,inhibited the LPS-induced breakdown of IκBα
